Results taken from patent US5834010A, “Triacetin as a penetration enhancer for transdermal delivery of a basic drug” (priority 1997, dated 1998).
Like-named read-outs stand apart in the source and are kept apart here.

Experiments:
[1] = In vitro human cadaver skin flux of oxybutynin free base from adhesive matrix patches (modified Franz cells)
Experimental: In vitro human cadaver skin flux studies were conducted using modified Franz non-jacketed permeation cells. The temperature of the cells was maintained at 32° C. by placing the cells in a circulating water bath positioned over a stirring module. The epidermal membrane was separated from the human cadaver whole skin by the heat-separation method of Kligman & Christopher, 88 Arch. Dermatol. 702 (1963), hereby incorporated by reference, involving treating the full thickness skin at 60° C. for 60 seconds, after which time the stratum corneum and the epidermis (epidermal membrane) were gently peeled from the dermis.
For skin flux studies of matrix devices, the epidermal membrane was cut into rectangular strips, and the matrix device was cut into 0.96 cm^2 circular discs. The release liner was peeled from the disc, and the disc was laminated onto the stratum corneum surface of the epidermal membrane to form a skin-matrix laminate. The skin-matrix laminate was then loaded between the donor and receiver compartments of a diffusion cell with the epidermal side facing the receiver compartment. The laminate was clamped in place, and the receiver compartment was then filled with an appropriate receiving solution for a selected drug. The receiving solution was selected such that the drug was stable in the solution, the subsequent assay of the drug was not interfered with, and solubility of the drug was adequate to ensure sink conditions throughout the experiment. The diffusion cell was then placed in a circulating water bath calibrated to maintain the skin surface temperature at 32°±1° C. At predetermined sampling intervals, the entire contents of the receiver compartment were collected for drug quantitation, and the receiver compartment was filled with fresh receiving solution, taking care to eliminate any air bubbles at the skin/solution interface.
The cumulative amount of drug permeating through the epidermal membrane, Qt (μg/cm^2), at any time t was determined from the following formula: [formula] where Cn is the concentration (μg/ml) of the drug in the receiver sample for the corresponding sample time, V is the volume of fluid in the receiver chamber (~6.3 cm^3), and A is the diffusional area of the cell (0.64 cm^2). The slope of the best fit line to the plot of Qt vs. t gives the steady state flux (Jss, μg/cm^2 /hr); the intercept of this line on the time axis give the lag time (tL,h).
Matrix patches containing varying amounts of oxybutynin free base and penetration enhancers were prepared and tested as described above. The matrix systems consisted of 5 to 20% by weight of oxybutynin free base and 0 to 20% by weight of the enhancer contained in a medical grade acrylic copolymer adhesive.
The matrix formulations were prepared as follows. First, the solids content of the adhesive was determined by weighing a small amount of the adhesive solution in a preweighed aluminum dish. The solvent was evaporated by overnight drying in a convection oven maintained at 80° C. and the weight of the residue (dry adhesive) and percent solid adhesive content of the solution were determined. Once the solids content was determined, a known weight of the acrylic copolymer adhesive solution was weighed into a glass bottle. From the weight of the adhesive solution and the percent solid adhesive content, the amount of adhesive in the solution was calculated. Oxybutynin free base and enhancer were added to the bottle in proportions to yield the selected final composition. The bottle was then tightly capped, sealed with laboratory film, and rotated overnight until all ingredients had completely dissolved and the resultant solution was visually clear.
Approximately 8 ml of the solution was then dispensed on a silanized polyester release liner and cast with a 10 mil gap casting knife. The casting was then dried in a convection oven at 70° C. for 15 minutes to evaporate the solvent and to yield a dried film approximately 0.002 inch thick.

[2] = propylene glycol/linoleic acid enhancer system; cited from earlier work
[3] = Enhancement of transdermal penetration, general statement; assay type: in vitro ADME
Source text: As used herein, the terms "enhancement", "penetration enhancement" or "permeation enhancement" mean an increase in the permeability of a biological membrane (i.e. skin or mucosa) to a drug, so as to increase the rate at which the drug permeates through the membrane. "Permeation enhancer," "enhancer," "penetration enhancer," or similar term means a material that achieves such permeation enhancement, and an "effective amount" of an enhancer means an amount effective to enhance penetration through the skin or mucosa of a selected agent to a selected degree. The enhanced permeation as effected though the use of such enhancers can be observed, for example, by measuring the rate of diffusion of the drug through animal or human skin using a diffusion cell apparatus. Such a diffusion cell is described by Merritt et al., Diffusion Apparatus for Skin Penetration, 1 J. of Controlled Release 61 (1984), incorporated herein by reference.

[4] = isosorbide dinitrate, JP05148141-A; cited from earlier work
[5] = In vitro human cadaver skin flux of oxybutynin free base from liquid reservoir gel formulations; assay type: in vitro ADME
Experimental: For skin flux studies of gel formulations (i.e., for liquid reservoir patch designs), the epidermal membrane was cut and placed between two halves of the permeation cell with the stratum corneum facing the donor compartment. The skin was allowed to hydrate at 32° C. overnight with 0.02% (w/v) sodium azide solution in the receiver compartment. The following morning, 75 μl of a gelled formulation was placed into a cavity created by placing a polytetrafluoroethylene washer over the stratum corneum surface. The cavity was then occluded by clamping an occlusive backing over the washer and gel. An appropriate receiving solution for a selected drug was placed in the receiver compartment in contact with the dermal side of the epidermis.
Liquid reservoir gel formulations containing oxybutynin free base and triacetin were tested as described above. Such liquid reservoir gel formulations were prepared in 10 ml quantities. Ethanol, water, glycerin, and triacetin were mixed in selected proportions in a capped vial. Then, 400 mg of oxybutynin free base was added to the vial, and the vial was capped and ultrasonicated to completely dissolve the drug. Next, 0.3 g of modified hydroxyethyl cellulose (NATROSOL PLUS 330CS, Aqualon, Wilmington, Del.) as a gelling agent was added to the mixture and the contents were mixed thoroughly and gently rotated overnight to completely dissolve the gelling agent.

[6] = Allen, U.S. Pat. No. 4,895,727; cited from earlier work
[7] = plaster with glycol and surfactant, WO9309783-A1; cited from earlier work

With `CN1CCCC1=O` [N-methyl pyrrolidone, reference compound] the “exhibited the ability to increase transdermal skin flux of oxybutynin free base” value [1] was “none of the well known penetration enhancers tested”.
For `CCCCCCCC/C=C\CCCCCCCC(=O)OCC(O)CO` (centres unmarked) [glycerol monooleate, reference compound], the “exhibited the ability to increase transdermal skin flux of oxybutynin free base” value ([1]; matrix system, TSR adhesive) was “none of the well known penetration enhancers tested”.
In the case of `CCCCCCCCCCCCCC(=O)OC(C)C` [isopropyl myristate, reference compound], the “exhibited the ability to increase transdermal skin flux of oxybutynin free base” value ([1]; matrix system, TSR adhesive) is reported as “none of the well known penetration enhancers tested”.
For `CCCCCCCCCCCCO` [lauryl alcohol, reference compound], the “exhibited the ability to increase transdermal skin flux of oxybutynin free base” value ([1]; matrix system, TSR adhesive) was “none of the well known penetration enhancers tested”.
In the case of `CC(=O)OCC(COC(C)=O)OC(C)=O` [triacetin, glyceryl triacetate], the “flux of oxymorphone with increasing amounts of triacetin and decreasing linoleic acid” value [2] is listed as “decreasing flux”, the “lag time for permeation of oxymorphone with increasing amounts of triacetin and decreasing linoleic acid” value [2] is listed as “increasing lag time” and the “enhancing transdermal penetration of basic drugs” value ([3]; basic drugs, particularly pKa of about 8.0 or above, matrix patch) is listed as “effective in enhancing transdermal penetration of basic drugs”. The “enhancing transdermal penetration of neutral or acidic drugs” value ([3]; neutral or acidic drugs) was “not of neutral or acidic drugs”, the “penetration enhancing effect of triacetin” value [4] was “shown only in conjunction with a neutral, solvent-acting drug” and the “penetration enhancement with liquid reservoir patches” value [5] was “no penetration enhancement of basic drugs (including oxybutynin) or other drugs has been observed”. The antifungal activity [6] was “has activity as an antifungal agent”, the “percutaneous absorption of piroxicam” value [7] was “enhances percutaneous absorption of piroxicam” and the “effect on skin flux of oxybutynin free base” value [1] was “significantly increases the skin flux of oxybutynin free base”.
For “sorbitan monooleate [reference compound]”, the “exhibited the ability to increase transdermal skin flux of oxybutynin free base” value ([1]; matrix system, TSR adhesive) was “none of the well known penetration enhancers tested”.
